Laboratory results published in patent publication US20200131196A1 (Mount Tam Therapeutics, Inc., priority 2017, published 2020).

Columns and labels:
[1] = test system: CRO-AP2; test: OncoPanel cell proliferation assay, CRO-AP2; assay type: cell-based, human
Experimental: (§1) Cells were grown in RPMI 1640, 10% FBS, 2 mM L-alanyl-L-glutamine, 1 mM Na pyruvate, or a special medium. Cells were seeded into 384-well plates and incubated in a humidified atmosphere of 5% CO2 at 37° C. Compounds were added the day following cell seeding. At the same time, a time zero untreated cell plate was generated. After a 3-day incubation period, cells were fixed and stained to allow fluorescence imaging of nuclei. Compounds (1 mM stock solutions) were serially diluted in half-log steps from the highest test concentration ([…]), and assayed over 10 concentrations with a maximum assay concentration of 0.1% DMSO. Automated fluorescence microscopy was carried out using a Molecular Devices ImageXpress Micro XL high-content imager, and images were collected with a 4× objective. 16-bit TIFF images were acquired and analyzed with MetaXpress 5.1.0.41 software.
(§2) Cell proliferation was measured by the fluorescence intensity of an incorporated nuclear dye. The output is referred to as the relative cell count, where the measured nuclear intensity is transformed to percent of control (POC) using the following formula: […]
(§3) Cellular response parameters were calculated using nonlinear regression to a sigmoidal single-site dose response model:
(§4) EC50 is the test compound concentration at the curve inflection point or half the effective response (parameter C of the fitted curve solution). GI50 is the concentration needed to reduce the observed growth by half (midway between the curve maximum and the time zero value). “Cell Count Activity Area” is an estimate of the integrated area above the curve (Barretina, et al. The Cancer Cell Line Encyclopedia enables predictive modelling of anticancer drug sensitivity. Nature 483: 603-607). […] In rare instances, values <0 or >10 may be observed. […] Curve-fitting, calculations, and report generation was performed using a custom data reduction engine and MathIQ based software (AIM).

[2] = test system: MES-SA; test: OncoPanel cell proliferation assay, MES-SA; assay type: cell-based, human
Experimental: as §1, §2, §3, §4

[3] = test system: NCI-H510A; test: OncoPanel cell proliferation assay, NCI-H510A; assay type: cell-based, human
Experimental: as §1, §2, §3, §4

[4] = test system: RL95-2; test: OncoPanel cell proliferation assay, RL95-2; assay type: cell-based, human
Experimental: as §1, §2, §3, §4

[5] = test system: SNU-C2B; test: OncoPanel cell proliferation assay, SNU-C2B; assay type: cell-based, human
Experimental: as §1, §2, §3, §4

[6] = test system: SNU-5; test: OncoPanel cell proliferation assay, SNU-5; assay type: cell-based, human; conditions: Homo sapiens
Experimental: as §1, with “Cells” for “Cells were grown in RPMI 1640, 10% FBS, 2 mM L-alanyl-L-glutamine, 1 mM Na pyruvate, or a special medium. Cells”
as §2, §3
(§5) GI50 is the concentration needed to reduce the observed growth by half (midway between the curve maximum and the time zero value). […] In rare instances, values <0 or >10 may be observed. […] Curve-fitting, calculations, and report generation was performed using a custom data reduction engine and MathIQ based software (AIM).

[7] = test system: SW579; test: OncoPanel cell proliferation assay, SW579; assay type: cell-based, human
Experimental: as §1, §2, §3, §4

[8] = test system: TF-1; test: OncoPanel cell proliferation assay, TF-1; assay type: cell-based, human
Experimental: as §1, §2, §3, §4

[9] = test system: U2OS; test: OncoPanel cell proliferation assay, U2OS; assay type: cell-based, human
Experimental: as §1, with “Cells” for “Cells were grown in RPMI 1640, 10% FBS, 2 mM L-alanyl-L-glutamine, 1 mM Na pyruvate, or a special medium. Cells”
as §2, §3, §5

[10] = test system: U-87 MG; test: OncoPanel cell proliferation assay, U-87 MG; assay type: cell-based, human
Experimental: as §1, §2, §3, §4

[11] = test system: RKOE6; test: OncoPanel cell proliferation assay, RKOE6
Experimental: (§6) Cells were seeded into 384-well plates and incubated in a humidified atmosphere of 5% CO2 at 37° C. Compounds were added the day following cell seeding. At the same time, a time zero untreated cell plate was generated. After a 3-day incubation period, cells were fixed and stained to allow fluorescence imaging of nuclei. Compounds (1 mM stock solutions) were serially diluted in half-log steps from the highest test concentration (1 micromol), and assayed over 10 concentrations with a maximum assay concentration of 0.1% DMSO. Automated fluorescence microscopy was carried out using a Molecular Devices ImageXpress Micro XL high-content imager, and images were collected with a 4× objective. 16-bit TIFF images were acquired and analyzed with MetaXpress 5.1.0.41 software.

[12] = test system: CAMA-1; test: OncoPanel cell proliferation assay, CAMA-1
Experimental: as §6

[13] = Homo sapiens, read-out: Cell Count EC50
[14] = Homo sapiens, read-out: Cell Count GI50
[15] = Homo sapiens, read-out: Cell Count IC50

In the case of `CO[C@H]1C[C@@H]2CC[C@@H](C)[C@@](O)(O2)C(=O)C(=O)N2CCCC[C@H]2C(=O)O[C@H]([C@H](C)C[C@@H]2CC[C@@H](O)[C@H](OC)C2)CC(=O)[C@H](C)/C=C(\C)[C@@H](O)[C@@H](OC)C(=O)[C@H](C)C[C@H](C)/C=C/C=C/C=C/1C` [Rapamycin, reference compound], the “Cell Count Activity Area” value [1] is reported as 6.22, the EC50 [1, 13] is reported as 0.119 nM and the GI50 [1, 14] is reported as 0.155 nM. For the same compound, the IC50 [1, 15] was 0.187 nM, the “Cell Count Activity Area” value [2] was 5.39 and the EC50 [2, 13] was 0.174 nM. For the same compound, the GI50 [2, 14] was 0.294 nM, the IC50 [2, 15] was 0.415 nM and the “Cell Count Activity Area” value [3] was 1.63. The EC50 [3, 13] was > 1000 nM, the GI50 [3, 14] was > 1000 nM and the IC50 [3, 15] was > 1000 nM. The “Cell Count Activity Area” value [4] was 4.24, the EC50 [4, 13] was 0.0705 nM and the GI50 [4, 14] was 0.13 nM. The IC50 [4, 15] was > 1000 nM, the “Cell Count Activity Area” value [5] was 1.99 and the EC50 [5, 13] was > 1000 nM. The GI50 [5, 14] was > 1000 nM, the IC50 [5, 15] was > 1000 nM and the EC50 ([6]; read-out: Cell Count EC50) was 0.885 nM. The GI50 ([6]; read-out: Cell Count GI50) was 24 nM, the IC50 ([6]; read-out: Cell Count IC50) was > 1000 nM and the “Cell Count Activity Area” value [7] was 4.77. For the same compound, the EC50 [7, 13] was 0.0136 nM, the GI50 [7, 14] was 0.0539 nM and the IC50 [7, 15] was > 1000 nM. For the same compound, the “Cell Count Activity Area” value [8] was 1.52, the EC50 [8, 13] was > 1000 nM and the GI50 [8, 14] was > 1000 nM. The IC50 [8, 15] was > 1000 nM, the “Cell Count Activity Area” value [9] was 3.04 and the EC50 [9, 13] was 0.65 nM. The GI50 [9, 14] was 2.54 nM, the IC50 [9, 15] was > 1000 nM and the “Cell Count Activity Area” value [10] was 3.79. The EC50 [10, 13] was 0.104 nM, the GI50 [10, 14] was 0.384 nM and the IC50 [10, 15] was > 1000 nM. The EC50 ([11]; Homo sapiens, RKOE6, read-out: Cell Count EC50) was 0.0835 nM, the GI50 ([11]; Homo sapiens, RKOE6, read-out: Cell Count GI50) was 0.356 nM and the IC50 ([11]; Homo sapiens, RKOE6, read-out: Cell Count IC50) was 1.06 nM. For the same compound, the “Cell Count Activity Area” value ([11]; RKOE6) was 4.61, the “Cell Count Activity Area” value ([12]; CAMA-1) was 4.07 and the EC50 ([12]; Homo sapiens, CAMA-1, read-out: Cell Count EC50) was 0.194 nM. It also gave an IC50 ([12]; Homo sapiens, CAMA-1, read-out: Cell Count IC50) of 1.19 nM.
